B1: Wnt5a: recombinant Wnt5a (R&D Systems/Bio-techne, 645-WN-010) used to treat cell lines (protein, UniProt P22725 62-380, looked up)
Protein Wnt-5a: IIGAQPLCSQLAGLSQGQKKLCHLYQDHMQYIGEGAKTGIKECQYQFRHRRWNCSTVDNTSVFGRVMQIGSRETAFTYAVSAAGVVNAMSRACREGELSTCGCSRAARPKDLPRDWLWGGCGDNIDYGYRFAKEFVDARERERIHAKGSYESARILMNLHNNEAGRRTVYNLADVACKCHGVSGSCSLKTCWLQLADFRKVGDALKEKYDSAAAMRLNSRGKLVQVNSRFNSPTTQDLVYIDPSPDYCVRNESTGSLGTQGRLCNKTSEGMDGCELMCCGRGYDQFKTVQTERCHCKFHWCCYVKCKKCTEIVDQFVCK

Legend:
[1] = tested on: BRAF^V600EPTEN^−/− melanoma-bearing NLRP3^−/− mice; test: Anti-PD-1 alone or with MCC950 in BRAFV600EPTEN−/− melanoma-bearing NLRP3−/− mice; type: in vivo, mouse
[2] = tested on: autochthonous BRAF^V600EPTEN^−/− melanoma model; test: Autochthonous (transgenic) BRAFV600EPTEN−/− melanoma model treated with anti-PD-1 ± MCC950 or anti-HSP70 antibody; type: in vivo, mouse
Description: Prior studies have described disease hyper-progression (HPD) occurring in response to anti-PD-1 immunotherapy, a phenomenon estimated by some authors to develop in ˜10% of all solid tumors (5). In HPD, tumor burden can dramatically increase in response to exposure to anti-PD-1 immunotherapy. Given our prior data describing a role for the tumor-intrinsic NLRP3-HSP70 signaling axis as an important driver of PMN-MDSC accumulation in distant lung tissues in response to anti-PD-1 immunotherapy, we hypothesized that this same tumor-intrinsic signaling pathway can establish an immunologic environment capable of facilitating HPD. […]
B6.Cg-Braf^tm1Mmcm Pten^tm1Hwu Tg(Tyr-cre/ERT2 H-2^b)13Bos/BosJ transgenic mice were subdermally injected with 4-Hydroxytamoxifen (4-HT) (Sigma, H6278-50MG CCF, 38.75 μg/mouse) to induce primary melanoma development at the base of the tail. […] Primary tumor volumes were monitored by orthogonal caliper measurements every 3 days. Tumor volume was calculated according to the formula: cm^3=[(length, cm)×(width, cm)^2]/2.
Small representative tissue specimens were harvested from tumors and lungs and stored in RNAlater at −80° C. […] Total RNA was isolated by RNeasy Plus Mini Kit (Qiagen, 74134) and RNA was quantified by NanoDrop. […] All data were normalized to Actb expression and relative gene expression was quantitated based on the 2ΔΔCt method. […]

[3] = tested on: MLE12 lung epithelial cells; test: MLE12 lung epithelial cell line Western blot after rHSP70 ± TLR4 inhibitor or recombinant Wnt5a; type: cell-based, murine; details: for G-CSF expression: in vitro lung epithelial cells
non-tumor-bearing mice = test: Recombinant HSP70 i.p. delivery into non-tumor-bearing mice (lung Western blot, flow cytometry); type: in vivo, mouse; details: rHSP70 i.p. vs normal saline
Description: (§1) Indeed, while we were able to detect soluble HSP70 as a secretion product of human melanoma cell lines, we were not able to detect the production of active IL-1β (FIGS. 12B and C). […] We have previously shown that the tumor-intrinsic NLRP3 inflammasome drives PMN-MDSC recruitment via an autocrine signaling pathway dependent on soluble HSP70 (19). […] To determine whether HSP70 could play the role of a soluble mediator in the induction of CXCR2-dependent chemokines in the distant lung, we delivered recombinant HSP70 (rHSP70) into non-tumor-bearing mice by intra-peritoneal (i.p.) injection and measured CXCL5 expression by whole lung tissue Western blot analysis as well as PMN-MDSC accumulation in the lung by flow cytometry. […] Based on these cumulative findings, we hypothesized that tumor-derived HSP70 signals through TLR4 to promote PMN-MDSC trafficking to these distant tissues. […]
Cells (1-2×10^6) were diluted in 150 μl flow buffer per well of V bottom culture plates, incubated with Live/Dead Stain (Sigma) on ice for 20 mins, washed twice, and incubated with Fc Block (anti-CD16/CD32, 2 ug/mL) before staining with appropriate conjugated antibodies. Cells were washed, resuspended in 2% paraformaldehyde for 15 mins at 4° C., and analyzed using a BD FACSCanto flow cytometry system. […]

[4] = tested on: CD45^−EpCAM^+ lung epithelial cells of TLR4^f/f and SPC-TLR4^−/− mice; test: rHSP70 i.p. in TLR4f/f and SPC-TLR4−/− transgenic mice, qrt-PCR of sorted lung epithelial cells; type: in vivo, mouse; details: rHSP70 i.p. vs saline
Description: as §1
Small representative tissue specimens were harvested from tumors and lungs and stored in RNAlater at −80° C. […] Total RNA was isolated by RNeasy Plus Mini Kit (Qiagen, 74134) and RNA was quantified by NanoDrop. […]

Molecule | anti-PD-1-induced accumulation of PMN-MDSCs into lung tissues ([1]; MCC950 in combination with anti-PD-1, lung tissue and BALF) | upregulation of Wnt5a expression in lung tissues ([1]; MCC950 with anti-PD-1, Western blot) | metastatic progression to the lung ([2]; MCC950 with anti-PD-1, S100β IHC and TRP2 qrt-PCR) | PMN-MDSC populations in the lung ([2]; MCC950 with anti-PD-1 vs anti-PD-1) | Wnt5a expression ([3]; MLE12 cells, rHSP70 ± TLR4 inhibitor) | G-CSF expression [3] | CXCL5 expression in whole lung tissue (non-tumor-bearing mice; Western blot) | PMN-MDSC accumulation in the lung (non-tumor-bearing mice; flow cytometry) | Wnt5a and Cxcl5 expression in lung epithelial cells [4]
CC(C)(O)c1coc(S(=O)(=O)NC(=O)Nc2c3c(cc4c2CCC4)CCC3)c1 [MCC950] | largely eliminated | suppress the upregulation of Wnt5a expression in lung tissues | inhibiting metastatic progression | suppress PMN-MDSC populations in the lung |  |  |  |  | 
rHSP70: recombinant HSP70 delivered by intra-peritoneal injection or added to cells |  |  |  |  | induce Wnt5a expression in a TLR4-dependent manner | induce modest G-CSF upregulation | induce CXCL5 expression | promote the accumulation of PMN-MDSCs in lung tissues | upregulated only in lung epithelial cells expressing TLR4
B1 |  |  |  |  |  | more immediate driver of G-CSF |  |  | 

— patent US20230152324A1, “TUMOR-INTRINSIC NLRP3 INFLAMMASOME SIGNALING PATHWAY AS A GENETIC AND FUNCTIONAL BIOMARKER FOR IMMUNOTHERAPY RESPONSE” (Duke University, priority 2021, published 2023)
